We go through five compounds from patent EP1182208A2, “Composition for DNA transfection” (Roche Diagnostics GmbH, priority 2000, dated 2002).

One data set concerns HEK293-EBNA. Nature of the data set: Luciferase transfection efficiency, serum-free suspension culture (Example 5). Type of data set: cell-based, Human. The following applies: soluble cell extract after 24 hours. As for the experimental part: (§1) 1 mg of the compound obtained in Example 2 was dissolved in 500 µl sterile pure water (1 mg/ml) and stored at 4 °C. 90 mg polyethyleneimine, with a molecular weight of 25 kDa, was dissolved in sterile pure water (0.9 mg/ml), neutralized with HCl, sterile filtered and stored at room temperature.
(§2) 3 µl of a plasmid solution (1 mg/ml) encoding the luciferase gene was diluted in 1.5 ml culture medium and mixed. 2.25 µl compound (1 mg/ml) as described in Example 2 was added, mixed and followed by 8.3 µl PEI (0.9 mg/ml). After mixing and incubation for 10 minutes at room temperature, the mixture was transferred into 15 ml of various cells. Cells which were grown in serum-free suspension culture were transferred into fresh medium before adding the complexes. The luciferase activity was measured in the soluble cell extract after 24 hours incubation and expressed as relative light unit (RLU) per milligram protein.

Another data set relates to HEK293. The data set is described as above. Type of data set: cell-based, Human. The following applies: soluble cell extract after 24 hours. As for the experimental part: as §1, §2
Another data set has as its system BHK 21 Cl. The data set is described as above. Conditions: soluble cell extract after 24 hours. Type of data set: cell-based. How it is done:
as §1, §2

The subject of another data set is CHO dhfr-. Described as above. Type of data set: cell-based. Conditions: soluble cell extract after 24 hours. As for the experimental part:
as §1, §2

Another data set relates to Glioma C6. Described as above. Conditions: soluble cell extract after 24 hours. Type of data set: cell-based. As for the experimental part:
as §1, §2

Data set [1] concerns HEK293-EBNA cells. Briefly: Cell viability of transfected HEK293-EBNA cells in serum-free suspension culture (Example 3). Type of data set: cell-based, Human. Conditions: compound-mediated transfection; serum-free suspension culture of HEK293-EBNA cells. As for the experimental part: (§3) 1 mg of the compound obtained in Example 2 was dissolved in 500 µl acetonitrile, diluted in 500 µl sterile pure water (1 mg/ml) and stored at 4 °C. 15 µl of a plasmid solution (1 mg/ml) encoding the soluble human tumor necrosis factor receptor p55 gene was transferred into 1.5 ml medium and mixed. Various amounts of the compound obtained in […] was added, mixed and after 10 minutes at room temperature, the mixture was transferred to 15 ml HEK293-EBNA cells in suspension.

Assay in data set [2]: as above
The following applies: human, HEK293-EBNA cells in suspension, serum-free suspension culture. Type of data set: cell-based, Human. As for the experimental part: as §3

Data set [3] relates to HEK293-EBNA cells. Briefly: Transient transfection of HEK293-EBNA cells in serum-free suspension culture, expression of soluble TNF receptor p55 (Example 3). Type of data set: cell-based, Human. As for the experimental part:
as §3

Data set [4] has as its system HEK293-EBNA cells. Briefly: Influence of antibiotics on transient transfection in HL medium, luciferase expression (Example 13). Type of data set: cell-based, Human. Conditions: control without = 100, compound from Example 2 and PEI. As for the experimental part: 1 mg of the compound from Example 2 was dissolved in 0.5 ml acetonitrile, mixed for 3-5 minutes at 37 °C, diluted in 0.5 ml sterile, pure water (1 mg/ml) and stored at 4 °C. 90 mg polyethelenimine (PEI), with a molecular weight of 25 kDa, were dissolved in sterile, pure water (0.9 mg/ml), neutralized with HCl, sterile filtered and stored at 4 °C. 3 µl of a plasmid solution (1 mg/ml) encoding the luciferase gene was added to 1.5 ml HL medium (containing 0.3% Primatone RL) and mixed. After 2 minutes incubation at room temperature, 2.25 µl of the compound from Example 2 (1mg/ml) was added and mixed, followed by 8.3 µl PEI (0.9 mg/ml). After mixing and incubation for 15-30 minutes at room temperature, the mixture was transferred into 15 ml of HEK293-EBNA cells containing different antibiotics. Cells which were grown in serum-free suspension culture in HL medium (containing 0.3% Primatone RL and different antibiotics) were transferred into fresh HL medium (containing 0.3% Primatone RL and different antibiotics), then adjusted to 5.5-6 x 10^6 cells/ml before adding the DNA complexes. The luciferase activity was measured in the soluble cell extract after 20-22 hours incubation time and expressed as relative light units per ml culture.

For data set [5], the system named is HEK293-EBNA cells. Briefly: Effect of various compounds on DNA complex formation in DMEM/HAM F12 medium, luciferase expression (Example 11). Type of data set: cell-based, Human. As for the experimental part: 1 mg of the compound from Example 2 was dissolved in 0.5 ml acetonitrile, mixed for 3-5 minutes at 37 °C, diluted in 0.5 ml sterile, pure water (1 mg/ml) and stored at 4 °C. 90 mg polyethelenimine (PEI), with a molecular weight of 25 kDa, were dissolved in sterile, pure water (0.9 mg/ml), neutralized with HCl, sterile filtered and stored at 4 °C.
Different growth promotion compounds were added to 1.5 ml DMEM/HAM F12 medium (without any compounds) and mixed. After 2-3 minutes, 3 µl of a plasmid solution (1 mg/ml) encoding the luciferase gene was added to the 1.5 ml […] and mixed. After 2 minutes incubation at room temperature, 2.25 µl of the compound from Example 2 (1mg/ml) was added and mixed, followed by 8.3 µl PEI (0.9 mg/ml). After mixing and incubation for 15-30 minutes at room temperature, the mixture was transferred into 15 ml of HEK293-EBNA cells. Cells which were grown in serum-free suspension culture in HL medium (containing 0.3% Primatone RL) were transferred into fresh HL medium (containing 0.3% Primatone RL) then adjusted to 5.5-6 x 10^6 cells/ml before adding the DNA complexes. The luciferase activity was measured in the soluble cell extract after 20-22 hours incubation time and expressed as relative light units per ml culture. […]

Broadly, the viability is the share of living cells, or the viability signal relative to a control. High values mean better survival, low ones a greater loss of cells. On to `CCCCCCCC/C=C\CCCCCCCC(=O)OC[C@H](COP(=O)(O)OCCNC(=O)CCSSC[C@@H](NC(=O)[C@H](NC(=O)CNC(=O)[C@@H](C)NC(=O)[C@H](NC(=O)[C@@H](CC(C)C)NC(=O)[C@@H](CCCCN)NC(=O)[C@H](NC(=O)[C@@H](CC(C)C)NC(=O)[C@H](NC(=O)[C@H](NC(=O)CNC(=O)[C@@H](CC(C)C)NC(=O)[C@H]1CCCN1C(=O)[C@@H](C)NC(=O)[C@@H](CC(C)C)NC(=O)[C@H](NC(=O)[C@@H](CO)NC(=O)[C@@H](Cc1c[nH]c2ccccc12)NC(=O)[C@H](NC(=O)[C@@H](CCCCN)NC(=O)[C@@H](CCCNC(=N)N)NC(=O)[C@@H](CCCCN)NC(=O)[C@@H](CCCNC(=N)N)NC(=O)[C@@H](CCC(N)=O)NC(=O)[C@H](N)CCC(N)=O)[C@H](C)CC)[C@H](C)CC)[C@H](C)O)[C@H](C)O)C(C)C)C(C)C)[C@H](C)CC)C(N)=O)OC(=O)CCCCCCC/C=C\CCCCCCCC` [Compound, retro-inverso dioleylmelittin], for which the Luciferase activity in the data set with HEK293-EBNA was 2.2 x 10^6 RLU/mg protein; in the data set with HEK293, 1.8 x 10^6 RLU/mg protein; in the data set on BHK 21 Cl, 5.2 x 10^5 RLU/mg protein; with CHO dhfr-, 1.4 x 10^6 RLU/mg protein; with Glioma C6, 5.8 x 10^6 RLU/mg protein. Also, the cell toxicity effects result in the data set on HEK293-EBNA cells [1] is “absence of detectable cell toxicity effects”. Further, the viability at 1 µg/mL in data set [2] (Compound 1 µg/ml) is 90 to 95%. Besides, the viability at 2 µg/mL in [2] (Compound 2 µg/ml) fell in the range of 90 to 95%. Moreover, the viability at 4 µg/mL in data set [2] (Compound 4 µg/ml) lay in the range of 90 to 95%. Besides, the viability at 6 µg/mL in data set [2] (Compound 6 µg/ml) was 90 to 95%. Moreover, the viability at 10 µg/mL in [2] (Compound 10 µg/ml) is 90 to 95%. Also, the TNFRp55 in the data set with HEK293-EBNA cells [3] (Compound 1 µg/ml) came out at 0.1 ng/mL; in the data set with HEK293-EBNA cells [3] (Compound 2 µg/ml) it was 0.2 ng/mL; in the data set with HEK293-EBNA cells [3] (Compound 4 µg/ml) it was 2.5 ng/mL; with HEK293-EBNA cells [3] (Compound 6 µg/ml) it was 6.3 ng/mL; in the data set with HEK293-EBNA cells [3] (Compound 10 µg/ml), 83 ng/mL.
As to `C[C@H]1c2cccc(O)c2C(=O)C2=C(O)[C@]3(O)C(=O)C(C(N)=O)=C(O)[C@@H](N(C)C)[C@@H]3[C@@H](O)[C@@H]21` [Doxycycline], the Luciferase activity in the data set on HEK293-EBNA cells [4] (antibiotic 2 µg/ml in HL medium with Primatone RL (0.3%)) turned out to be 89%.
In the data set on HEK293-EBNA cells [4] (antibiotic 250 µg/ml in HL medium with Primatone RL (0.3%)), `CN[C@@H]1[C@@H](O)[C@@H](O[C@@H]2[C@@H](O)[C@H](O[C@H]3O[C@H]([C@@H](C)O)[C@@H](O)[C@H](O)[C@H]3N)[C@@H](N)C[C@H]2N)OC[C@]1(C)O` [Geneticin (G-418), Geneticin] returned a Luciferase activity of 93%.
For `NC(=O)CC[C@H](N)C(=O)O` [Glutamine 200 mM, Glutamine], in the data set with HEK293-EBNA cells [5] (additive 1:100, Primatone RL was set as 100 %), the “% Increase” value came to 13%. Further, the Luciferase activity with HEK293-EBNA cells [5] (additive dilution 1:100 in DMEM/HAM F12, compound from Example 2 and PEI) was 1.06 RLU x 10^9/ml.
With Gentamycin, the Luciferase activity in the data set on HEK293-EBNA cells [4] (antibiotic 50 µg/ml in HL medium with Primatone RL (0.3%)) was 80%.
